In ChEMBL document CHEMBL1201862, “PubChem BioAssay data set” (2004):
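Grown in 96-well plates, cells were treated for 48 hours with each compound at five concentrations. Insufficient inhibition: endpoint recorded as highest concentration tested. GI50 = concentration required for 50% inhibition of growth.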 Active and inactive are the calls of the source. No stated cut-off is given here; in the data, active = GI50 up to about 1.1 µM and inactive = higher.

Tests used:
Assay in all cases: DTP human tumour cell line panel, 48 h
IGROV-1 = tested on: IGROV-1
HL-60 = tested on: HL-60
NCI-H23 = tested on: NCI-H23
K562 = tested on: K562
NCI-H460 = tested on: NCI-H460
KM12 = tested on: KM12
SF-268 = tested on: SF-268
LOX IMVI = tested on: LOX IMVI
HCT-15 = tested on: HCT-15
EKVX = tested on: EKVX
OVCAR-8 = tested on: OVCAR-8
OVCAR-4 = tested on: OVCAR-4
HCC 2998 = tested on: HCC 2998
SF-539 = tested on: SF-539
SN12C = tested on: SN12C
HCT-116 = tested on: HCT-116
NCI-H226 = tested on: NCI-H226
SK-MEL-28 = tested on: SK-MEL-28
OVCAR-5 = tested on: OVCAR-5
MCF7 = tested on: MCF7

| SMILES | GI50 (IGROV-1) | GI50 (HL-60) | GI50 (NCI-H23) | GI50 (K562) | GI50 (NCI-H460) | GI50 (KM12) | GI50 (SF-268) | GI50 (LOX IMVI) | GI50 (HCT-15) [µM] | GI50 (EKVX) | GI50 (OVCAR-8) | GI50 (OVCAR-4) | GI50 (HCC 2998) | GI50 (SF-539) | GI50 (SN12C) | GI50 (HCT-116) | GI50 (NCI-H226) | GI50 (SK-MEL-28) | GI50 (OVCAR-5) | GI50 (MCF7) |
| --- | --- | --- | --- | --- | --- | --- | --- | --- | --- | --- | --- | --- | --- | --- | --- | --- | --- | --- | --- | --- |
| CCC(CC)NC1=C(NC(C)=O)C(=O)c2ccccc2C1=O | > 50 µM (inactive) | > 50 µM (inactive) | > 50 µM (inactive) | > 50 µM (inactive) | > 50 µM (inactive) | > 50 µM (inactive) | > 50 µM (inactive) | > 50 µM (inactive) | > 50 | > 50 µM (inactive) | > 50 µM (inactive) | > 50 µM (inactive) | > 50 µM (inactive) | > 50 µM (inactive) | > 50 µM (inactive) | > 50 µM (inactive) | > 50 µM (inactive) | > 50 µM (inactive) |  |  |
| C=CC1(C)CCC(C(C)C(=O)C(C=C(C)C)OC(C)=O)C12C(=O)Oc1ccccc1C2=O (centres undefined) | 72.3 µM (inactive) | 19.7 µM (inactive) | 46.7 µM (inactive) | 31.6 µM (inactive) | 29.6 µM (inactive) | 44.8 µM (inactive) | 62.1 µM (inactive) | 35.7 µM (inactive) | 38.5 | 60.8 µM (inactive) | 37.6 µM (inactive) | 45.2 µM (inactive) | 82.4 µM (inactive) | > 100 µM (inactive) | 49.4 µM (inactive) | 31.1 µM (inactive) | 58.5 µM (inactive) | > 100 µM (inactive) |  |  |
| CCc1c(-c2coc(CC/C(C)=C/c3ccccc3)n2)oc(OC)c(C)c1=O | > 83.8 µM (inactive) | 5.13 µM (inactive) |  | 0.122 µM (active) | 18.7 µM (inactive) | 78.9 µM (inactive) | > 100 µM (inactive) | 15.1 µM (inactive) | 18.7 | 25.4 µM (inactive) | 19.9 µM (inactive) | > 39 µM (inactive) | 78.7 µM (inactive) | 28 µM (inactive) | > 42.1 µM (inactive) | 19 µM (inactive) | 68.2 µM (inactive) | > 100 µM (inactive) | > 100 µM (inactive) |  |
| Cc1cccc(NC(=O)C(=O)C2C(=O)NC(=O)NC2=O)c1C | > 100 µM (inactive) | > 100 µM (inactive) | > 100 µM (inactive) | > 100 µM (inactive) | > 100 µM (inactive) | > 100 µM (inactive) | > 100 µM (inactive) | > 100 µM (inactive) | > 100 | > 100 µM (inactive) | > 100 µM (inactive) | > 100 µM (inactive) | > 100 µM (inactive) | > 100 µM (inactive) | > 100 µM (inactive) | > 100 µM (inactive) | > 100 µM (inactive) | > 100 µM (inactive) | > 100 µM (inactive) |  |
| CCN(CC)CCNc1ccc(C)c2sc3ccc(O)cc3c(=O)c12 | 1.23 µM (inactive) | 0.106 µM (active) | 1.2 µM (inactive) | 0.832 µM (active) | < 0.0128 µM (active) | 1.43 µM (inactive) | 1.8 µM (inactive) | 0.711 µM (active) | 0.923 | 10.2 µM (inactive) | 1.37 µM (inactive) | 2.7 µM (inactive) | 1.36 µM (inactive) | 1.15 µM (inactive) | 0.594 µM (active) | 1.15 µM (inactive) | 0.466 µM (active) | 1.49 µM (inactive) | 4.1 µM (inactive) |  |
| Oc1nc(CC(O)c2ccc(Cl)c(Cl)c2)cc(-c2ccccc2)n1 (centres undefined) | > 100 µM (inactive) | 25.1 µM (inactive) | 71.9 µM (inactive) | 51.3 µM (inactive) | 94.8 µM (inactive) | 69.3 µM (inactive) | 80.7 µM (inactive) | > 100 µM (inactive) | 89.1 | 44.9 µM (inactive) | > 100 µM (inactive) | 68.4 µM (inactive) | 33.5 µM (inactive) | > 100 µM (inactive) | > 100 µM (inactive) | 49.8 µM (inactive) | 55.8 µM (inactive) | > 100 µM (inactive) | 11.2 µM (inactive) |  |
| O=C(O)[C@@H]1[C@H](C(=O)O)[C@H](C(=O)O)C[C@@H]1C(=O)O | > 100 µM (inactive) |  | > 100 µM (inactive) | > 100 µM (inactive) | > 100 µM (inactive) | > 100 µM (inactive) | > 100 µM (inactive) | > 100 µM (inactive) | > 100 | > 100 µM (inactive) | > 100 µM (inactive) | > 100 µM (inactive) |  | > 100 µM (inactive) | > 100 µM (inactive) | > 100 µM (inactive) | > 100 µM (inactive) | > 100 µM (inactive) | > 100 µM (inactive) | > 100 µM (inactive) |
